Results reported in paper PMC12057336 (Antimicrobial Agents and Chemotherapy, 2025).
Read-outs that look alike come from different tables or passages of the source.

Assays:
[1] = Tissue distribution after i.g. or i.v. linezolid in control, CCl4-induced and 5/6 Nx rats; format: in vivo, rat; settings: for Kp at 0.5 h / Kp at 1 h / Kp at 4 h: rat
Text: These two groups were further divided into the following three subgroups (n = 4): control rats, CCl4-induced rats, and 5/6 Nx rats. […] The rats were euthanized immediately after blood sampling. The brain, heart, lungs, liver, kidneys, and small intestine were collected. The collected tissues were washed and homogenized in normal saline (three-fold volume of each sample weight) using a multi-sample tissue grinder (Tissuelyser-48L; Shanghai Jingxin Industrial Development Co. Ltd., Shanghai, China). After centrifugation of the homogenate samples at 12,000 × g for 10 min at 4°C, the supernatants were stored at −80°C.
The flow rate was 1.0 mL/min.
Then, 5 µL of the supernatant was analyzed.

[2] = test system: OCT3; parameters: method as in PMID 27645247, PMID 26976869, PMID 27550354; settings: cited from earlier work
[3] = test system: OAT3; settings: cited from earlier work
[4] = cited from earlier work; for median plasma concentration: standard doses
[5] = brain, iv, 25 mg/kg, i.v. 25 mg/kg linezolid, 5/6 Nx rats, read-out: Tissue/plasma concentration ratio, Brain
[6] = brain, iv, 25 mg/kg, i.v. 25 mg/kg linezolid, CCl4-induced rats, read-out: Tissue/plasma concentration ratio, Brain
[7] = brain, iv, 25 mg/kg, i.v. 25 mg/kg linezolid, control rats, read-out: Tissue/plasma concentration ratio, Brain
[8] = brain, oral, 63 mg/kg, i.g. 63 mg/kg linezolid, 5/6 Nx rats, read-out: Tissue/plasma concentration ratio, Brain
[9] = brain, oral, 63 mg/kg, i.g. 63 mg/kg linezolid, CCl4-induced rats, read-out: Tissue/plasma concentration ratio, Brain
[10] = brain, oral, 63 mg/kg, i.g. 63 mg/kg linezolid, control rats, read-out: Tissue/plasma concentration ratio, Brain
[11] = heart, iv, 25 mg/kg, i.v. 25 mg/kg linezolid, 5/6 Nx rats, read-out: Tissue/plasma concentration ratio, Heart
[12] = heart, iv, 25 mg/kg, i.v. 25 mg/kg linezolid, CCl4-induced rats, read-out: Tissue/plasma concentration ratio, Heart
[13] = heart, iv, 25 mg/kg, i.v. 25 mg/kg linezolid, control rats, read-out: Tissue/plasma concentration ratio, Heart
[14] = heart, oral, 63 mg/kg, i.g. 63 mg/kg linezolid, CCl4-induced rats, read-out: Tissue/plasma concentration ratio, Heart
[15] = heart, oral, 63 mg/kg, i.g. 63 mg/kg linezolid, control rats, read-out: Tissue/plasma concentration ratio, Heart
[16] = heart, oral, 63 mg/kg, i.g. 63 mg/kg linezolid, 5/6 Nx rats, read-out: Tissue/plasma concentration ratio, Heart
[17] = kidney, iv, 25 mg/kg, i.v. 25 mg/kg linezolid, 5/6 Nx rats, read-out: Tissue/plasma concentration ratio, Kidney
[18] = kidney, iv, 25 mg/kg, i.v. 25 mg/kg linezolid, control rats, read-out: Tissue/plasma concentration ratio, Kidney
[19] = kidney, oral, 63 mg/kg, i.g. 63 mg/kg linezolid, CCl4-induced rats, read-out: Tissue/plasma concentration ratio, Kidney
[20] = kidney, oral, 63 mg/kg, i.g. 63 mg/kg linezolid, 5/6 Nx rats, read-out: Tissue/plasma concentration ratio, Kidney
[21] = kidney, oral, 63 mg/kg, i.g. 63 mg/kg linezolid, control rats, read-out: Tissue/plasma concentration ratio, Kidney
[22] = liver (homogenate) relative to plasma, iv, 25 mg/kg, i.v. 25 mg/kg linezolid, 5/6 Nx rats, read-out: Tissue/plasma concentration ratio, Liver
[23] = liver (homogenate) relative to plasma, iv, 25 mg/kg, i.v. 25 mg/kg linezolid, control rats, read-out: Tissue/plasma concentration ratio, Liver
[24] = liver, oral, 63 mg/kg, i.g. 63 mg/kg linezolid, 5/6 Nx rats, read-out: Tissue/plasma concentration ratio, Liver
[25] = liver, oral, 63 mg/kg, i.g. 63 mg/kg linezolid, CCl4-induced rats, read-out: Tissue/plasma concentration ratio, Liver
[26] = liver, oral, 63 mg/kg, i.g. 63 mg/kg linezolid, control rats, read-out: Tissue/plasma concentration ratio, Liver
[27] = lung, iv, 25 mg/kg, i.v. 25 mg/kg linezolid, 5/6 Nx rats, read-out: Tissue/plasma concentration ratio, Lung
[28] = lung, iv, 25 mg/kg, i.v. 25 mg/kg linezolid, CCl4-induced rats, read-out: Tissue/plasma concentration ratio, Lung
[29] = lung, iv, 25 mg/kg, i.v. 25 mg/kg linezolid, control rats, read-out: Tissue/plasma concentration ratio, Lung
[30] = lung, oral, 63 mg/kg, i.g. 63 mg/kg linezolid, 5/6 Nx rats, read-out: Tissue/plasma concentration ratio, Lung
[31] = lung, oral, 63 mg/kg, i.g. 63 mg/kg linezolid, CCl4-induced rats, read-out: Tissue/plasma concentration ratio, Lung
[32] = lung, oral, 63 mg/kg, i.g. 63 mg/kg linezolid, control rats, read-out: Tissue/plasma concentration ratio, Lung
[33] = small intestine, iv, 25 mg/kg, i.v. 25 mg/kg linezolid, 5/6 Nx rats, read-out: Tissue/plasma concentration ratio, Small intestine
[34] = small intestine, iv, 25 mg/kg, i.v. 25 mg/kg linezolid, CCl4-induced rats, read-out: Tissue/plasma concentration ratio, Small intestine
[35] = small intestine, iv, 25 mg/kg, i.v. 25 mg/kg linezolid, control rats, read-out: Tissue/plasma concentration ratio, Small intestine
[36] = small intestine, oral, 63 mg/kg, i.g. 63 mg/kg linezolid, 5/6 Nx rats, read-out: Tissue/plasma concentration ratio, Small intestine
[37] = small intestine, oral, 63 mg/kg, i.g. 63 mg/kg linezolid, CCl4-induced rats, read-out: Tissue/plasma concentration ratio, Small intestine
[38] = small intestine, oral, 63 mg/kg, i.g. 63 mg/kg linezolid, control rats, read-out: Tissue/plasma concentration ratio, Small intestine
[39] = thrombocytopenic patients with moderate renal failure

CC(=O)NC[C@H]1CN(c2ccc(N3CCOCC3)c(F)c2)C(=O)O1 [Linezolid]
Kp at 0.5 h [1, 5]: 0.12 ± 0.04
Kp at 0.5 h [1, 6]: 0.16 ± 0.12
Kp at 0.5 h [1, 7]: 0.11 ± 0.02
Kp at 1 h [1, 5]: 0.15 ± 0.01
Kp at 1 h [1, 6]: 0.12 ± 0.03
Kp at 1 h [1, 7]: 0.12 ± 0.02
Kp at 4 h [1, 5]: 0.13 ± 0.04
Kp at 4 h [1, 6]: 0.08 ± 0.01
Kp at 0.5 h [1, 8]: 0.17 ± 0.06
Kp at 0.5 h [1, 9]: 0.1 ± 0.01
Kp at 0.5 h [1, 10]: 0.15 ± 0.02
Kp at 1 h [1, 8]: 0.16 ± 0.03
Kp at 1 h [1, 9]: 0.09 ± 0.02
Kp at 1 h [1, 10]: 0.03 ± 0.002
Kp at 4 h [1, 8]: 0.18 ± 0.06
Kp at 4 h [1, 9]: 0.07 ± 0.04
Kp at 4 h [1, 10]: 0.06 ± 0.03
Kp at 0.5 h [1, 11]: 0.85 ± 0.04
Kp at 0.5 h [1, 12]: 0.63 ± 0.05
Kp at 0.5 h [1, 13]: 0.5 ± 0.09
Kp at 1 h [1, 11]: 0.91 ± 0.04
Kp at 1 h [1, 12]: 0.67 ± 0.05
Kp at 1 h [1, 13]: 0.4 ± 0.07
Kp at 4 h [1, 11]: 0.75 ± 0.13
Kp at 4 h [1, 12]: 0.67 ± 0.09
Kp at 4 h [1, 13]: 0.13 ± 0.1
Kp at 0.5 h [1, 14]: 0.64 ± 0.14
Kp at 0.5 h [1, 15]: 0.68 ± 0.06
Kp at 1 h [1, 16]: 0.88 ± 0.12
Kp at 1 h [1, 14]: 0.54 ± 0.18
Kp at 1 h [1, 15]: 0.24 ± 0.06
Kp at 4 h [1, 16]: 0.96 ± 0.47
Kp at 4 h [1, 14]: 0.61 ± 0.03
Kp at 4 h [1, 15]: 0.47 ± 0.15
Kp at 4 h ([1]; kidney (homogenate) relative to plasma, iv, 25 mg/kg, i.v. 25 mg/kg linezolid, 5/6 Nx rats, read-out: Tissue/plasma concentration ratio, Kidney): 1 ± 0.23
Kp at 0.5 h [1, 17]: 0.97 ± 0.12
Kp at 0.5 h ([1]; kidney, iv, 25 mg/kg, i.v. 25 mg/kg linezolid, CCl4-induced rats, read-out: Tissue/plasma concentration ratio, Kidney): 1.28 ± 0.56
Kp at 0.5 h [1, 18]: 0.64 ± 0.36
Kp at 1 h [1, 17]: 0.92 ± 0.18
Kp at 1 h [1, 18]: 0.62 ± 0.52
Kp at 4 h [1, 18]: 0.84 ± 0.14
Kp at 0.5 h [1, 19]: 0.85 ± 0.16
Kp at 1 h [1, 20]: 0.94 ± 0.18
Kp at 1 h [1, 19]: 1.18 ± 0.22
Kp at 1 h [1, 21]: 0.42 ± 0.06
Kp at 4 h [1, 20]: 0.97 ± 0.25
Kp at 4 h [1, 19]: 1.11 ± 0.17
Kp at 4 h [1, 21]: 0.75 ± 0.15
Kp at 0.5 h [1, 22]: 1.24 ± 0.21
Kp at 0.5 h ([1]; liver (homogenate) relative to plasma, iv, 25 mg/kg, i.v. 25 mg/kg linezolid, CCl4-induced rats, read-out: Tissue/plasma concentration ratio, Liver): 1.32 ± 0.36
Kp at 0.5 h [1, 23]: 1.22 ± 0.46
Kp at 1 h [1, 22]: 1.11 ± 0.34
Kp at 1 h [1, 23]: 0.6 ± 0.38
Kp at 4 h ([1]; liver, iv, 25 mg/kg, i.v. 25 mg/kg linezolid, 5/6 Nx rats, read-out: Tissue/plasma concentration ratio, Liver): 1.39 ± 0.4
Kp at 4 h ([1]; liver, iv, 25 mg/kg, i.v. 25 mg/kg linezolid, CCl4-induced rats, read-out: Tissue/plasma concentration ratio, Liver): 1.19 ± 0.85
Kp at 4 h ([1]; liver, iv, 25 mg/kg, i.v. 25 mg/kg linezolid, control rats, read-out: Tissue/plasma concentration ratio, Liver): 1.3 ± 0.36
Kp at 0.5 h [1, 24]: 1.25 ± 0.6
Kp at 0.5 h [1, 25]: 1.06 ± 0.44
Kp at 0.5 h [1, 26]: 1.64 ± 0.75
Kp at 1 h [1, 24]: 1.37 ± 0.41
Kp at 1 h [1, 25]: 1.19 ± 0.18
Kp at 1 h [1, 26]: 0.78 ± 0.14
Kp at 4 h [1, 24]: 1 ± 0.11
Kp at 4 h [1, 25]: 0.93 ± 0.31
Kp at 4 h [1, 26]: 1.06 ± 0.16
Kp at 0.5 h [1, 27]: 0.87 ± 0.03
Kp at 0.5 h [1, 28]: 0.55 ± 0.34
Kp at 0.5 h [1, 29]: 0.42 ± 0.25
Kp at 1 h [1, 27]: 0.91 ± 0.08
Kp at 1 h [1, 28]: 0.66 ± 0.08
Kp at 1 h [1, 29]: 0.25 ± 0.18
Kp at 4 h [1, 27]: 0.74 ± 0.2
Kp at 4 h [1, 28]: 0.85 ± 0.14
Kp at 4 h [1, 29]: 0.45 ± 0.46
Kp at 0.5 h [1, 30]: 0.86 ± 0.38
Kp at 0.5 h [1, 31]: 0.68 ± 0.16
Kp at 0.5 h [1, 32]: 0.67 ± 0.13
Kp at 1 h [1, 30]: 0.94 ± 0.18
Kp at 1 h [1, 31]: 0.66 ± 0.05
Kp at 1 h [1, 32]: 0.07 ± 0.03
Kp at 4 h [1, 30]: 0.82 ± 0.09
Kp at 4 h [1, 31]: 0.6 ± 0.04
Kp at 4 h [1, 32]: 0.46 ± 0.15
Kp at 0.5 h [1, 33]: 1.19 ± 0.31
Kp at 0.5 h [1, 34]: 0.66 ± 0.05
Kp at 0.5 h [1, 35]: 0.42 ± 0.21
Kp at 1 h [1, 33]: 0.77 ± 0.34
Kp at 1 h [1, 34]: 0.69 ± 0.05
Kp at 1 h [1, 35]: 0.21 ± 0.01
Kp at 4 h [1, 33]: 0.73 ± 0.07
Kp at 4 h [1, 34]: 0.71 ± 0.09
Kp at 4 h [1, 35]: 0.47 ± 0.42
Kp at 0.5 h [1, 36]: 2.48 ± 0.76
Kp at 0.5 h [1, 37]: 0.93 ± 0.26
Kp at 0.5 h [1, 38]: 0.35 ± 0.21
Kp at 1 h [1, 36]: 1.28 ± 0.29
Kp at 1 h [1, 37]: 0.9 ± 0.09
Kp at 1 h [1, 38]: 0.33 ± 0.22
Kp at 4 h [1, 36]: 0.9 ± 0.31
Kp at 4 h [1, 37]: 1.11 ± 0.07
Kp at 4 h [1, 38]: 0.6 ± 0.18
accumulation in brain, heart, lung, liver, kidney, or small intestinal tissues ([1]; within 4 hours after i.g. and i.v. administration, hepatic impairment or renal failure rats): did not accumulate
inhibitor of OCT3 [2]: not an inhibitor
inhibitor of OAT3 [3]: inhibitor
administered dose excreted in the urine as the parent drug [4]: 35%
apparent volume of distribution (Vd) [4]: 40 to 50 L
elimination half-life (t1/2) [4]: 5 to 7 h
total clearance (CL) [4]: 80 mL/min
median plasma concentration ([4]; controls without liver cirrhosis): 2.70 mg/L
mean recovery of linezolid radioactivity in excreta ([4]; healthy volunteers): 93.8%
radioactivity excreted in the feces ([4]; healthy volunteers): 9.9%
radioactivity excreted in the urine ([4]; healthy volunteers): 83.9%
share of dosed linezolid in the urine ([4]; humans): more than 30%
CL ([4]; patient with acute-on-chronic liver failure): 1.54 L/h
median plasma concentration ([4]; patients with liver cirrhosis): 20.6 mg/L
median trough concentration ([4]; patients with mild hepatic impairment): 5.51 mg/L
median trough concentration ([4]; patients with moderate hepatic impairment): 6.70 mg/L
median trough concentration ([4]; patients with severe hepatic impairment): 20.7 mg/L
CL ([4]; patients without concomitant liver failure): 6.26 L/h
AUC0-24 [4, 39]: 513.1 to 994.6 µg·h/mL
trough concentration [4, 39]: 14.4 to 35.6 mg/L
